Patent publication US8546386B2, “Corrosion and microbial control in hydrocarbonaceous compositions” (Dow Global Technologies LLC, priority 2008, dated 2013)

Columns and labels:
Format in all cases: cell-based
[1] = system: Yarrowia tropicalis ATCC#48138; assay: Microbial testing in diesel fuel, plate count
[2] = system: Yarrowia tropicalis ATCC#48138; assay: Microbial testing in biodiesel fuel, plate count; conditions: Biocide 0 ppm
[3] = system: Hormoconis resinae ATCC#20495; assay: Microbial testing in biodiesel fuel, plate count; conditions: Biocide 0 ppm
[4] = system: Pseudomonas aeruginosa ATCC#33988; assay: Microbial testing in diesel fuel, plate count
[5] = system: Hormoconis resinae ATCC#20495; assay: Microbial testing in diesel fuel, plate count
[6] = system: Pseudomonas aeruginosa ATCC#33988; assay: Microbial testing in biodiesel fuel, plate count; conditions: Biocide 0 ppm
[7] = amino alcohol 1500 ppm + FS 135 ppm, Day 0
[8] = amino alcohol 1500 ppm + FS 135 ppm, Wk 1
[9] = amino alcohol 1500 ppm + FS 135 ppm, Wk 2
[10] = amino alcohol 1500 ppm + FS 135 ppm, Wk 3
[11] = amino alcohol 1500 ppm + FS 135 ppm, Wk 4
[12] = amino alcohol 1500 ppm + FS 1000 ppm, Day 0
[13] = amino alcohol 1500 ppm + FS 1000 ppm, Wk 1
[14] = amino alcohol 1500 ppm + FS 1000 ppm, Wk 2
[15] = amino alcohol 1500 ppm + FS 1000 ppm, Wk 3
[16] = amino alcohol 1500 ppm + FS 1000 ppm, Wk 4
[17] = amino alcohol 1500 ppm, no biocide, Day 0
[18] = amino alcohol 1500 ppm, no biocide, Wk 1
[19] = amino alcohol 1500 ppm, no biocide, Wk 2
[20] = amino alcohol 1500 ppm, no biocide, Wk 3
[21] = amino alcohol 1500 ppm, no biocide, Wk 4
[22] = amino alcohol 3000 ppm + FS 135 ppm, Day 0
[23] = amino alcohol 3000 ppm + FS 135 ppm, Wk 1
[24] = amino alcohol 3000 ppm + FS 135 ppm, Wk 2
[25] = amino alcohol 3000 ppm + FS 135 ppm, Wk 3
[26] = amino alcohol 3000 ppm + FS 135 ppm, Wk 4
[27] = amino alcohol 3000 ppm + FS 1000 ppm, Day 0
[28] = amino alcohol 3000 ppm + FS 1000 ppm, Wk 1
[29] = amino alcohol 3000 ppm + FS 1000 ppm, Wk 2
[30] = amino alcohol 3000 ppm + FS 1000 ppm, Wk 3
[31] = amino alcohol 3000 ppm + FS 1000 ppm, Wk 4
[32] = amino alcohol 3000 ppm, no biocide, Day 0
[33] = amino alcohol 3000 ppm, no biocide, Wk 1
[34] = amino alcohol 3000 ppm, no biocide, Wk 2
[35] = amino alcohol 3000 ppm, no biocide, Wk 3
[36] = amino alcohol 3000 ppm, no biocide, Wk 4

Structure (SMILES): NC1(CO)CCCCC1 [ACyHM, 1-aminocyclohexylmethanol]
- Y. tropicalis organism count [1, 7]: 2.8E5
- Y. tropicalis organism count [1, 8]: 7.8E4
- Y. tropicalis organism count [1, 9]: 5.0E3
- Y. tropicalis organism count [1, 10]: 6.7E2
- Y. tropicalis organism count [1, 11]: 1.8E2
- Y. tropicalis organism count [1, 12]: 2.8E5
- Y. tropicalis organism count [1, 13]: 1.6E4
- Y. tropicalis organism count [1, 14]: <10
- Y. tropicalis organism count [1, 15]: <10
- Y. tropicalis organism count [1, 16]: <10
- Y. tropicalis organism count [1, 17]: 2.8E5
- Y. tropicalis organism count [1, 18]: 4.5E5
- Y. tropicalis organism count [1, 19]: 1.3E5
- Y. tropicalis organism count [1, 20]: 7.6E4
- Y. tropicalis organism count [1, 21]: 5.3E4
- Y. tropicalis organism count [1, 22]: 2.8E5
- Y. tropicalis organism count [1, 23]: 1.3E2
- Y. tropicalis organism count [1, 24]: <10
- Y. tropicalis organism count [1, 25]: <10
- Y. tropicalis organism count [1, 26]: <10
- Y. tropicalis organism count [1, 27]: 2.8E5
- Y. tropicalis organism count [1, 28]: <10
- Y. tropicalis organism count [1, 29]: <10
- Y. tropicalis organism count [1, 30]: <10
- Y. tropicalis organism count [1, 31]: <10
- Y. tropicalis organism count [1, 32]: 2.8E5
- Y. tropicalis organism count [1, 33]: 9.3E4
- Y. tropicalis organism count [1, 34]: 4.0E4
- Y. tropicalis organism count [1, 35]: 1.6E4
- Y. tropicalis organism count [1, 36]: 2.7E4
- Y. tropicalis organism count ([2]; aminoalcohol 1500 ppm, Week 1): <1.0E2
- Y. tropicalis organism count ([2]; aminoalcohol 1500 ppm, Week 2): <1.0E2
- Y. tropicalis organism count ([2]; aminoalcohol 1500 ppm, Week 3): <1.0E2
- Y. tropicalis organism count ([2]; aminoalcohol 1500 ppm, Week 4): <1.0E2
- Y. tropicalis organism count ([2]; aminoalcohol 3000 ppm, Week 1): <1.0E2
- Y. tropicalis organism count ([2]; aminoalcohol 3000 ppm, Week 2): <1.0E2
- Y. tropicalis organism count ([2]; aminoalcohol 3000 ppm, Week 3): <1.0E2
- Y. tropicalis organism count ([2]; aminoalcohol 3000 ppm, Week 4): <1.0E2
- H. resinae organism count ([3]; aminoalcohol 1500 ppm, Week 1): <1.0E2
- H. resinae organism count ([3]; aminoalcohol 1500 ppm, Week 2): <1.0E2
- H. resinae organism count ([3]; aminoalcohol 1500 ppm, Week 3): <1.0E2
- H. resinae organism count ([3]; aminoalcohol 1500 ppm, Week 4): <1.0E2
- H. resinae organism count ([3]; aminoalcohol 3000 ppm, Week 1): <1.0E2
- H. resinae organism count ([3]; aminoalcohol 3000 ppm, Week 2): <1.0E2
- H. resinae organism count ([3]; aminoalcohol 3000 ppm, Week 3): <1.0E2
- H. resinae organism count ([3]; aminoalcohol 3000 ppm, Week 4): <1.0E2
- Ps. aeruginosa organism count [4, 7]: 3.7E6
- Ps. aeruginosa organism count [4, 8]: 9.0E5
- Ps. aeruginosa organism count [4, 9]: 4.3E4
- Ps. aeruginosa organism count [4, 10]: 1.1E2
- Ps. aeruginosa organism count [4, 11]: 2.3E2
- Ps. aeruginosa organism count [4, 12]: 3.7E6
- Ps. aeruginosa organism count [4, 13]: 7.8E3
- Ps. aeruginosa organism count [4, 14]: <10
- Ps. aeruginosa organism count [4, 15]: <10
- Ps. aeruginosa organism count [4, 16]: <10
- Ps. aeruginosa organism count [4, 17]: 3.7E6
- Ps. aeruginosa organism count [4, 18]: 5.8E6
- Ps. aeruginosa organism count [4, 19]: 6.3E5
- Ps. aeruginosa organism count [4, 20]: 4.4E5
- Ps. aeruginosa organism count [4, 21]: 8.7E5
- Ps. aeruginosa organism count [4, 22]: 3.7E6
- Ps. aeruginosa organism count [4, 23]: 8.6E2
- Ps. aeruginosa organism count [4, 24]: 7.0E1
- Ps. aeruginosa organism count [4, 25]: <10
- Ps. aeruginosa organism count [4, 26]: 9.0E1
- Ps. aeruginosa organism count [4, 27]: 3.7E6
- Ps. aeruginosa organism count [4, 28]: <10
- Ps. aeruginosa organism count [4, 29]: <10
- Ps. aeruginosa organism count [4, 30]: <10
- Ps. aeruginosa organism count [4, 31]: <10
- Ps. aeruginosa organism count [4, 32]: 3.7E6
- Ps. aeruginosa organism count [4, 33]: 2.0E6
- Ps. aeruginosa organism count [4, 34]: 1.4E5
- Ps. aeruginosa organism count [4, 35]: 7.7E4
- Ps. aeruginosa organism count [4, 36]: 9.0E4
- H. resinae organism count [5, 7]: 5.3E5
- H. resinae organism count [5, 8]: 2.5E5
- H. resinae organism count [5, 9]: 2.0E3
- H. resinae organism count [5, 10]: 4.3E2
- H. resinae organism count [5, 11]: 7.0E2
- H. resinae organism count [5, 12]: 5.3E5
- H. resinae organism count [5, 13]: 1.1E4
- H. resinae organism count [5, 14]: <10
- H. resinae organism count [5, 15]: <10
- H. resinae organism count [5, 16]: 8.0E1
- H. resinae organism count [5, 17]: 5.3E5
- H. resinae organism count [5, 18]: 5.0E5
- H. resinae organism count [5, 19]: 1.3E5
- H. resinae organism count [5, 20]: 1.2E5
- H. resinae organism count [5, 21]: 2.7E5
- H. resinae organism count [5, 22]: 5.3E5
- H. resinae organism count [5, 23]: 2.0E3
- H. resinae organism count [5, 24]: 2.7E2
- H. resinae organism count [5, 25]: <10
- H. resinae organism count [5, 26]: 1.6E2
- H. resinae organism count [5, 27]: 5.3E5
- H. resinae organism count [5, 28]: 4.3E2
- H. resinae organism count [5, 29]: <10
- H. resinae organism count [5, 30]: 5.0E1
- H. resinae organism count [5, 31]: <10
- H. resinae organism count [5, 32]: 5.3E5
- H. resinae organism count [5, 33]: 9.4E4
- H. resinae organism count [5, 34]: 4.6E4
- H. resinae organism count [5, 35]: 6.6E4
- H. resinae organism count [5, 36]: 4.8E4
- Ps. aeruginosa organism count ([6]; aminoalcohol 1500 ppm, Week 1): <1.0E2
- Ps. aeruginosa organism count ([6]; aminoalcohol 1500 ppm, Week 2): <1.0E2
- Ps. aeruginosa organism count ([6]; aminoalcohol 1500 ppm, Week 3): <1.0E2
- Ps. aeruginosa organism count ([6]; aminoalcohol 1500 ppm, Week 4): <1.0E2
- Ps. aeruginosa organism count ([6]; aminoalcohol 3000 ppm, Week 1): <1.0E2
- Ps. aeruginosa organism count ([6]; aminoalcohol 3000 ppm, Week 2): <1.0E2
- Ps. aeruginosa organism count ([6]; aminoalcohol 3000 ppm, Week 3): <1.0E2
- Ps. aeruginosa organism count ([6]; aminoalcohol 3000 ppm, Week 4): <1.0E2
